The record followed here is US20090124633A1, “N-OXIDES OF HETEROCYCLIC SUBSTITUTED BISARYLUREAS FOR TREATING KINASE-MEDIATED DISEASES” (priority 2006, published 2009).

pIC50: −log10 of the molar value.

Data set [1] can be described thus: Stability against oxygen in air. The data set is classed as physicochemical. Particulars: dissolved either in DMSO/water or in acetic acid/water, stirred on air for more than a week. An excerpt:
Stability Against Oxygen in Air
The compounds • 4-{4-[3-(2-[1,2,4]Triazol-1-yl-5-trifluoromethyl-phenyl)-ureido]-phenoxy}-pyridine-2-carboxylic acid methylamide, • 4-{4-[3-(2-[1,2,3]Triazol-1-yl-5-trifluoromethyl-phenyl)-ureido]-phenoxy}-pyridine-2-carboxylic acid methylamide, 525946 • 4-{4-[3-(2-Imidazol-1-yl-5-trifluoromethyl-phenyl)-ureido]-phenoxy}-pyridine-2-carboxylic acid methylamide, and • 1-[4-(Pyridin-4-yloxy)-phenyl]-3-(2-[1,2,4]triazol-1-yl-5-trifluoromethyl-phenyl)-urea, respectively, were dissolved either in DMSO/water or in acetic acid/water and stirred on air for more than a week.

Another data set addresses T1, Tie-2 (Homo sapiens, UniProt Q02763).
T1 construct: The catalytic sections of the corresponding tyrosine kinases are preferably expressed as GST fusion proteins; GST
Briefly: flashplate kinase assay, phosphorylation of poly-Glu-Tyr (4:1) by Tie-2. The following applies: read-out: TIE2 [IC50]. The data set is classed as biochemical. The method, then:
(§1) The biological activity of N-oxide compounds according the invention are tested in one or more standard kinase assay systems as described in the art. Preferably, the compounds according the invention are tested in a kinase assay as described below, or in analogous manner thereof:
(§2) In this assay the inhibitory action of the compounds according to the invention on the phosphorylation of the substrates Biotin-poly-Glu-Tyr (4:1) by VGFR2 (KDR) or poly-Glu-Tyr (4:1) by Tie-2, respectively, is tested. In the wells of a streptavidin-coated microtiter flashplate, VEGFR2, or a microtiter flashplate, Tie-2, respectively, phosphorylate the substrates in the presence of ATPyS and small amounts of radioactive ^33P-ATP. Phosphorylated substrates bind during enzymatic reaction to the walls of the wells. The phosphorylation reaction is stopped by addition of a stopping reagent, the liquid is removed from the wells and the wells are rinsed. The amount of radioactivity incorporated into the substrate bound to the well is then measured. The reaction is done in presence of different concentrations of the compound and in absence of the compound. The inhibitory action of the compounds according to the invention is determined on the basis of the ratio of radioactivity found in the presence of a compound according to the invention in comparison to the radioactivity found in the enzymatic reaction in the absence of a compound according to the invention. The catalytic sections of the corresponding tyrosine kinases are preferably expressed as GST fusion proteins.
(§3) 100 μL of the compound to be tested are applied to a well (starting concentration: 1E-3 mol/L in 100% DMSO); the dilution for the determination of the IC 50 values is performed on a BiomekFX robot in 10 steps (range of concentration is 1E-5 to 1E-10 mol/L in the assay, i.e. 1E-5, 1E-6, 3E-7, 1E-7, 3E-8, 1E-8, 3E-9, 1E-9, 3E-10, 1E-10 mol/L).

A further data set concerns the target T2, VGFR2 (KDR) (Homo sapiens, UniProt P35968).
T2 construct: The catalytic sections of the corresponding tyrosine kinases are preferably expressed as GST fusion proteins; GST
In words: flashplate kinase assay, phosphorylation of Biotin-poly-Glu-Tyr (4:1) by VGFR2 (KDR). The data set is classed as biochemical. The method, then: as §1, §2, §3

T1 sequence (Q02763 824-1096 limits assumed): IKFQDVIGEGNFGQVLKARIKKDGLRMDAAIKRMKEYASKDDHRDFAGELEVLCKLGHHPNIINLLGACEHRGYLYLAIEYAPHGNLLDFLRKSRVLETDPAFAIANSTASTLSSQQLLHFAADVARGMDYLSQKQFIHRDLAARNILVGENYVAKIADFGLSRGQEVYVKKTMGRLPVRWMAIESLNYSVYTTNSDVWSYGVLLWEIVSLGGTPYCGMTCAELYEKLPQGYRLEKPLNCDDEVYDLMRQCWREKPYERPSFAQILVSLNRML
T2 sequence (P35968 834-1162 limits assumed): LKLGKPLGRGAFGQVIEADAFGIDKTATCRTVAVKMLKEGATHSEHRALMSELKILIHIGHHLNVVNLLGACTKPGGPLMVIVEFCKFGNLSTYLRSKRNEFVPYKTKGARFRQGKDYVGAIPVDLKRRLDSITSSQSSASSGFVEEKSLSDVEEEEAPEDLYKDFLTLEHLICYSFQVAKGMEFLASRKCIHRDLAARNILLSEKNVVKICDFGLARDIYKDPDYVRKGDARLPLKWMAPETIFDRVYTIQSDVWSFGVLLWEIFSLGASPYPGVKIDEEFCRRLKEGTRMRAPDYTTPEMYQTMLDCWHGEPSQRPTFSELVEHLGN

Take `O=C(Nc1ccc(Oc2ccncc2)cc1)Nc1cc(C(F)(F)F)ccc1-n1cncn1` [1-[4-(Pyridin-4-yloxy)-phenyl]-3-(2-[1,2,4]triazol-1-yl-5-trifluoromethyl-phenyl)-urea]: the “N-oxide formation on air” value in data set [1] is “No N-oxide formation could be detected”. Consider `CNC(=O)c1cc(Oc2ccc(NC(=O)Nc3cc(C(F)(F)F)ccc3-n3ccnc3)cc2)ccn1` [4-{4-[3-(2-Imidazol-1-yl-5-trifluoromethyl-phenyl)-ureido]-phenoxy}-pyridine-2-carboxylic acid methylamide], for which the “N-oxide formation on air” value in data set [1] is “No N-oxide formation could be detected”. Same read-out and setting: the same measure for `CNC(=O)c1cc(Oc2ccc(NC(=O)Nc3cc(C(F)(F)F)ccc3-n3ccnn3)cc2)ccn1` [4-{4-[3-(2-[1,2,3]Triazol-1-yl-5-trifluoromethyl-phenyl)-ureido]-phenoxy}-pyridine-2-carboxylic acid methylamide]: “No N-oxide formation could be detected”. Consider `CNC(=O)c1cc(Oc2ccc(NC(=O)Nc3cc(C(F)(F)F)ccc3-n3cncn3)cc2)ccn1` [4-{4-[3-(2-[1,2,4]Triazol-1-yl-5-trifluoromethyl-phenyl)-ureido]-phenoxy}-pyridine-2-carboxylic acid methylamide], for which, in data set [1], the “N-oxide formation on air” value was “No N-oxide formation could be detected”. In general, pIC50 refers to the negative decadic logarithm of the IC50, by convention in mol/L. For the compound `CNC(=O)c1cc(Oc2ccc(NC(=O)Nc3cc(C(F)(F)F)ccc3-n3cncn3)cc2)cc[n+]1[O-]` [Compound 11, 1-Oxy-4-{4-[3-(2-[1,2,4]triazol-1-yl-5-trifluoromethyl-phenyl)-ureido]-phenoxy}-pyridine-2-carboxylic acid methylamide], the pIC50 was 7.28 on Tie-2 and 7.85 on VGFR2 (KDR).

On to `CNC(=O)c1cc(Oc2ccc(NC(=O)Nc3cc(C(F)(F)F)ccc3-n3ccnn3)cc2)cc[n+]1[O-]` [Compound 12, 1-Oxy-4-{4-[3-(2-[1,2,3]triazol-1-yl-5-trifluoromethyl-phenyl)-ureido]-phenoxy}-pyridine-2-carboxylic acid methylamide], for which the figures for the pIC50 on Tie-2 and against VGFR2 (KDR) were 7.52 and 7.31, respectively. In the same order, the values of `CNC(=O)c1cc(Oc2ccc(NC(=O)Nc3cc(C(F)(F)F)ccc3-n3ccnc3)cc2)cc[n+]1[O-]` [Compound 13, 4-{4-[3-(2-Imidazol-1-yl-5-trifluoromethyl-phenyl)-ureido]-phenoxy}-1-oxy-pyridine-2-carboxylic acid methylamide] are 7.31 and 7.25. Take `O=C(Nc1ccc(Oc2cc[n+]([O-])cc2)cc1)Nc1cc(C(F)(F)F)ccc1-n1cncn1` [Compound 14, 1-[4-(1-Oxy-pyridin-4-yloxy)-phenyl]-3-(2-[1,2,4]triazol-1-yl-5-trifluoromethyl-phenyl)-urea]: the figures for the pIC50 at Tie-2 and at VGFR2 (KDR) were 6.13 and 5.92, respectively.
